The values below are quoted from earlier work in patent publication US7265142B2, “Materials and methods for the treatment of hypertension and angina” (ARYx Therapeutics, priority 2001, dated 2007).

The conditions of this data set: background statement; patients switched from mibefradil to dihydropyridine CCBs.

In the case of `COCC(=O)O[C@]1(CCN(C)CCCc2nc3ccccc3[nH]2)CCc2cc(F)ccc2[C@@H]1C(C)C` [mibefradil], the half-life result is “up to 24 hours”.
